Entries after “also recorded” stand apart in the source; their conditions may differ. Peptide text beside a SMILES is read from it. * marks the point of attachment. Cbz = O=C(OCc1ccccc1)*
Tests used:
FLAG-sortilin [1] = biological target: T1, FLAG-sortilin (Homo sapiens, UniProt Q99523); experiment: Non-reducing western blotting of sortilin dimerization in FLAG-sortilin HEK293 cells; assay type: cell-based; settings: for sortilin homodimers of low molecular weight in the cells: HEK293 cells stably overexpressing FLAG-sortilin, 24-h incubation, n=3; for dimerization of sortilin in the cells: FLAG-sortilin HEK293 cells, propeptide 100 nmol/L, 24 hours, n=2
T1 construct: pcDNA3.1(+) FLAG-sortilin full-length (Full), amino acids (aa) 1-831; expressed in transfected cells; cells and their extracellular vesicles
T1 sequence (Q99523 78-831): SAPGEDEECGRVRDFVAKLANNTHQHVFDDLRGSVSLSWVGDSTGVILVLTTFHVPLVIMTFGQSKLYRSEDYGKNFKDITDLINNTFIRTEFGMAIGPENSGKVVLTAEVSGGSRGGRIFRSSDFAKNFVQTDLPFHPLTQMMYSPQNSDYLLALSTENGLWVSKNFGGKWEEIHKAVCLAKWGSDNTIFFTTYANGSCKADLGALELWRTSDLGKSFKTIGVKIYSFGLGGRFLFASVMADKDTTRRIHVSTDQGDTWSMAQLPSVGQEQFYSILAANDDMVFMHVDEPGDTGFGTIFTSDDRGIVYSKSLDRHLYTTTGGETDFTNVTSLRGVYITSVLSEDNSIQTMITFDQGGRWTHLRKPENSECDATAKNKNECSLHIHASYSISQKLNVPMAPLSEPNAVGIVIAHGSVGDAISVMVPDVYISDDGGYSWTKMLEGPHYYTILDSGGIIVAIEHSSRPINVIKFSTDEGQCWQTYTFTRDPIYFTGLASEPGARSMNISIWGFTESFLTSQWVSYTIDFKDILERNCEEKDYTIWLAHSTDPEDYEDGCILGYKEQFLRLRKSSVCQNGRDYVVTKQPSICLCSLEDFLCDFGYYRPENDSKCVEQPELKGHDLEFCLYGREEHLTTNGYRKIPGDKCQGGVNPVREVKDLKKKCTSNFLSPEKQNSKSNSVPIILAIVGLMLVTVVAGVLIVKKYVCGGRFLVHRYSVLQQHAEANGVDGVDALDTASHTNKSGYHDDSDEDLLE
Description: (§1) Cells, EVs and the supernatant of culture medium were lysed with IP lysis buffer (Thermo Fisher Scientific Inc., Cat #87787) containing protease inhibitor (Roche Diagnostics, Cat #04693159001). Protein concentration was measured using the bicinchoninic acid (BCA) method (Thermo Fisher Scientific Inc., Cat #23225). Laemmli buffer (Boston Bioproduct; non-reducing, Cat #BP-110NR; reducing, Cat #BP-111R) was added to the lysate, and boiled at 95° C. for 5 minutes. Total protein was separated by 4-12% SDS-PAGE and transferred to polyvinylidene difluoride (PVDF) membrane using iBlot Western blotting system (Life Technologies) or conventional wet method. Primary antibodies against human sortilin ICD (rabbit 1:1000; Abcam plc., Cat #ab16640, Lot #GR185198-1), human (3-actin (mouse 1:2000; Novus Biologicals, LLC, Cat #NB600-501, Lot #014M4759), FLAG (rabbit 1:1000; Sigma, Cat #F4725, Lot #093M4798, mouse (M2) 1:1000; Sigma, Cat #F1804, Lot #SLBJ4607V), 6×His (mouse 1:1000; Abcam plc., Cat #ab18184, Lot #GR247674-1).
(§2) HEK293 cells were purchased from American Type Culture Collection (ATCC) and maintained in Eagle's minimum essential medium (EMEM, ATCC, Cat #30-2003) supplemented with 10% fetal bovine serum (FBS), penicillin (100 U/mL), and streptomycin (100 μg/mL) at 37° C. in a humidified atmosphere of 5% CO2. For transfection in HEK293 cells, Lipofectamine 2000 reagent (Thermo Fisher Scientific Inc., Cat #11668019) was used, according to the manufacturer's protocol. HEK293 cells stably expressing FLAG-sortilin Full, ECD+TMD, ICD+TMD and sortilin-3×FLAG were obtained by transfection with pcDNA3.1(+) FLAG-sortilin Full, pcDNA3.1(+) FLAG-sortilin-ECD+TMD, pcDNA3.1(+) FLAG-sortilin ICD+TMD, and expression vector of sortilin-3×FLAG (GeneCopoeia, Inc., Cat # EX-M0397-M14), respectively. These cell lines were maintained in EMEM supplemented with 10% FBS, penicillin/streptomycin, and geneticin 800 μg/mL. Cells were incubated in the incubator with MG-132 and chloroquine during the indicated time, and with 2-FPA and sortilin propeptide for 24 hours, respectively.

FLAG-sortilin [2] = biological target: T1, FLAG-sortilin; experiment: Non-reducing western blotting of sortilin dimerization in extracellular vesicles of FLAG-sortilin HEK293 cells; assay type: cell-based; settings: for sortilin homodimers (dimerization) in the extracellular vesicles: EVs of HEK293 cells stably overexpressing FLAG-sortilin, 24-h incubation, n=3; for dimerization of sortilin in the extracellular vesicles: EVs of FLAG-sortilin HEK293 cells, propeptide 100 nmol/L, 24 hours, n=2
Description: as §1, §2
Separation of culture medium to supernatant and EVs was performed according to the protocol previously reported (41). Culture medium underwent centrifugation at 1,000 rpm for 5 minutes to remove cell debris. Then, the supernatant and EVs were separated by ultracentrifugation at 100,000 g for 40 minutes at 4° C. (Optima Max Ultracentrifuge, Beckman Coulter).

FLAG-sortilin ICD+TMD = experiment: Reducing western blotting of FLAG-sortilin ICD+TMD protein expression in stably overexpressing HEK293 cells; assay type: cell-based, human; settings: for protein expression of FLAG-sortilin ICD+TMD: MG-132 20 μmol/L or chloroquine 10 μmol/L for 7 hours, n=3
Description: as §1, §2

[3] = listed as palmitoylation inhibitor

## CCCCCCCCCCCCCCC(F)C(=O)O (stereo not drawn) [2-FPA, 2-fluoropalmitic acid]
FLAG-sortilin [1]
  sortilin homodimers of low molecular weight in the cells: increased only homodimers of lower molecular size in the cells; also recorded: increased sortilin homodimers of low molecular weight
FLAG-sortilin [1]; [3]
  sortilin homodimers of low molecular weight in the cells: increased sortilin dimerization
FLAG-sortilin [2]
  sortilin homodimers (dimerization) in the extracellular vesicles: increased dimerization of FLAG-sortilin in the EVs; also recorded: increased sortilin homodimers of low molecular weight
FLAG-sortilin [2]; [3]
  sortilin homodimers (dimerization) in the extracellular vesicles: increased transport of dimerized sortilin to EVs

## CC(C)C[C@@H](C=O)NC(=O)[C@H](CC(C)C)NC(=O)[C@H](CC(C)C)NC(=O)OCc1ccccc1 [MG-132] (Cbz-Leu-Leu-Leu-aldehyde)
FLAG-sortilin ICD+TMD
  protein expression of FLAG-sortilin ICD+TMD: increased the protein expression of FLAG-sortilin ICD+TMD
FLAG-sortilin ICD+TMD; MG-132 2-20 μmol/L for 7 or 24 hours
  protein expression of FLAG-sortilin ICD+TMD, time and concentration dependence: increased protein expression of FLAG-sortilin ICD+TMD in a time- and concentration-dependent manner

## Chloroquine diphosphate salt
FLAG-sortilin ICD+TMD
  protein expression of FLAG-sortilin ICD+TMD: did not

## sortilin-derived propeptide: Sortilin propeptide (SEQ ID NO: 2), purchased from Phoenix Pharmaceuticals; the claimed inhibitor of sortilin dimerization (QDRLDAPPPPAAPLPRWSGPIGVSWGLRAAAAGGAFPRGGRWRR; listed as Homo sapiens)
FLAG-sortilin [1]
  dimerization of sortilin in the cells: did not affect dimerization in the cells
FLAG-sortilin [1]; listed as propeptide
  dimerization of sortilin in the cells: a decrease in the cells was not observed
FLAG-sortilin [1]; HEK293 cell line, propeptide treatment, summary statement
  sortilin dimerization (formation of homodimers), compartment not given: reduced them; also recorded: sortilin dimerization was decreased
FLAG-sortilin [2]
  dimerization of sortilin in the extracellular vesicles: decreased sortilin homodimers within EVs; also recorded: decreases sortilin homodimers in EVs; also recorded: decreased dimerization in the extracellular vesicles
FLAG-sortilin [2]; listed as propeptide
  dimerization of sortilin in the extracellular vesicles: decreased dimerization of sortilin in the extracellular vesicles

— patent publication US11833187B2, “Materials and methods for extracellular vessicle-associated diseases” (THE BRIGHAM AND WOMEN'S HOSPITAL, INC., priority 2017, dated 2023)
